Assay results as given in patent US20240262814A1, “MODULATORS OF TREX1” (Constellation Pharmaceuticals, Inc., priority 2021, published 2024).

How the values were obtained:
human TREX2 = target: T1, human TREX2 (Homo sapiens, UniProt Q9BQ50); assay: hTREX2 Biochemical Assay (selectivity hTREX1 vs hTREX2); conditions: biochemical selectivity for hTREX1 vs hTREX2
T1 construct: human TREX2 (residues M44-A279, expressed in E. coli); made in house; host or cells: E. coli
T1 sequence (Q9BQ50 44-279 isoform Q9BQ50-1): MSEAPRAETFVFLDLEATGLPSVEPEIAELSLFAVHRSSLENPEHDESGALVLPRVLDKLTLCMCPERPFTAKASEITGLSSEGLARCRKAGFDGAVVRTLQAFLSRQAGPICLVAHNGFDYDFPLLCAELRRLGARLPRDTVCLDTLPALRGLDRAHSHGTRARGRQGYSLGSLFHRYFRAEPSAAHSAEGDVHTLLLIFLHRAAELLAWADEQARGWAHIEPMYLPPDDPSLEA
Method: Degradation of the dsDNA liberates free fluorophore to produce a fluorescent signal. Specifically, 7.5 p L of N-terminally His-Tev tagged human TREX2 (residues M44-A279, expressed in E. coli and purified in house) in reaction buffer (50 mM Tris, 150 mM NaCl, 2 mM DTT, 0.1 mg/mL BSA, 0.01% (w/v) Tween-20, 5 mM MgCl2, pH 7.4) was added to a 384-well Black ProxiPlate Plus (PerkinElmer) which already contained compound (150 nL) at varying concentrations as a 10 point dose-response in DMSO. The plate was incubated at 25° C. for 4 hours. Reactions were initiated by adding 7.5 μL of dsDNA substrate (Strand A: 5′ TEX615/GCT AGG CAG 3′; Strand B: 5′ CTG CCT AGC/IAbRQSp (IDT)) in reaction buffer. Final concentrations were 50 pM TREX2, 60 nM dsDNA substrate in reaction buffer with 1.0% DMSO (v/v). After 18 hours at 25° C., reactions were quenched by the addition of 2 μL of 500 mM EDTA. Final concentrations in the quenched reaction mixture were 44 pM TREX2, 53 nM DNA and 59 mM EDTA in a volume of 17 μL. After a 5-minute incubation at room temperature, plates were read in an EnVision plate reader (PerkinElmer) measuring fluorescence at 615 nm following excitation w/ 570 nm light. IC50 values were calculated by comparing the measured fluorescence at 615 nm relative to control wells pre-quenched w/ stop buffer (100% inhibition) and no inhibitor (0% inhibition) controls as using non-linear least square four parameter fits and either Genedata or GraphPad Prism (GraphPad Software, Inc.).

human TREX1 = target: T2, human TREX1 (Homo sapiens, UniProt Q9NSU2); assay: hTREX1 Biochemical Assay (fluorescence, dsDNA substrate degradation); conditions: full length human TREX1, 4 h pre-incubation, 18 h reaction at 25° C.
T2 construct: N-terminally His-Tev tagged full length human TREX1; made in house; host or cells: E. coli
T2 sequence (Q9NSU2 1-314): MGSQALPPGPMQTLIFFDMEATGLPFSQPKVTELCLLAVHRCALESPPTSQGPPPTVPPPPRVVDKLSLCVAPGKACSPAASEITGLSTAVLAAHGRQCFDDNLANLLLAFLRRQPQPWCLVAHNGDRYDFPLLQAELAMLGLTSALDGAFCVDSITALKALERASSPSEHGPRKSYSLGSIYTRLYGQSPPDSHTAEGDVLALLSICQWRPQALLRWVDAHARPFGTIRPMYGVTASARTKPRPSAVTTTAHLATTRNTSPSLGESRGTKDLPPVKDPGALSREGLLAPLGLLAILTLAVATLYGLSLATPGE
Method: (§1) Degradation of the dsDNA liberates free fluorophore to produce a fluorescent signal. Specifically, 7.5 μL of N-terminally His-Tev tagged full length human TREX1 (expressed in E. coli and purified in house) in reaction buffer (50 mM Tris, 150 mM NaCl, 2 mM DTT, 0.1 mg/mL BSA, 0.01% (w/v) Tween-20, 5 mM MgCl2, pH 7.4) was added to a 384-well Black ProxiPlate Plus (PerkinElmer) which already contained compound (150 nL) at varying concentrations as a 10 point dose-response in DMSO. The plate was incubated at 25° C. for 4 hours. Reactions were initiated by adding 7.5 μL of dsDNA substrate (Strand A: 5′ TEX615/GCT AGG CAG 3′; Strand B: 5′ CTG CCT AGC/IAbRQSp (Integrated DNA Technologies)) in reaction buffer. Final concentrations were 4 pM TREX1, 60 nM dsDNA substrate in reaction buffer with 1.0% DMSO (v/v). After 18 hours at 25° C., reactions were quenched by the addition of 2 p L of 500 mM EDTA. Final concentrations in the quenched reaction were 3.5 pM TREX1, 53 nM DNA and 59 mM EDTA in a volume of 17 μL. After a 5-minute incubation at room temperature, plates were read in an EnVision plate reader (PerkinElmer) measuring fluorescence at 615 nm following excitation w/ 570 nm light. IC50 values were calculated by comparing the measured fluorescence at 615 nm relative to control wells pre-quenched w/ EDTA (100% inhibition) and no inhibitor (0% inhibition) controls as using non-linear least square four parameter fits and either Genedata or GraphPad Prism (GraphPad Software, Inc.).

mouse TREX1 = target: T3, mouse TREX1 (Mus musculus, UniProt Q91XB0); assay: mTREX1 Biochemical Assay (fluorescence, dsDNA substrate degradation); conditions: full length mouse TREX1, 4 h pre-incubation, 18 h reaction at 25° C.
T3 construct: N-terminally His-Tev tagged full length mouse TREX1; made in house; host or cells: E. coli
T3 sequence (Q91XB0 1-314): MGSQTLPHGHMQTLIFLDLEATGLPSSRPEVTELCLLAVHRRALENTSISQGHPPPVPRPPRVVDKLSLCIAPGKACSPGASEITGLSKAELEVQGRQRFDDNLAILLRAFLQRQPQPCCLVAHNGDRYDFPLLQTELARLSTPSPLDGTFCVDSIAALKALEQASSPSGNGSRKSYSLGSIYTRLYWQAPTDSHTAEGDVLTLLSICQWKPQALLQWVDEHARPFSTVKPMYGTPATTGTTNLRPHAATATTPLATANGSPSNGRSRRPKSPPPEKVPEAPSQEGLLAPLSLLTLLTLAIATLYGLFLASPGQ
Method: as §1, with “Specifically, 7.5 p L of N-terminally” for “Specifically, 7.5 μL of N-terminally”, “full length mouse TREX1 (expressed” for “full length human TREX1 (expressed”, “concentrations were 6 pM TREX1,” for “concentrations were 4 pM TREX1,”, “reaction were 5.3 pM TREX1,” for “reaction were 3.5 pM TREX1,”, “of 17 p L. After a” for “of 17 μL. After a”

Row | SMILES | hTREX1 vs hTREX2 selectivity (human TREX2) | IC50 (human TREX1) [nM] | IC50 (mouse TREX1) [nM]
1 | CC(c1nc(C(=O)Nc2cnoc2)c(O)c(=O)n1C)C(c1ccccc1Cl)c1ccccc1C#N (single isomer, unassigned) [Example 10 Isomer 2] | B (B = 25 to 50 fold selective for hTREX1) | 10 to 100 | > 10
2 | CC(c1nc(C(=O)Nc2cnoc2)c(O)c(=O)n1C)C(c1cc(F)cc(F)c1)c1ccccc1C#N (single isomer, unassigned) [Example 11 Isomer 2] | C (C = >50 fold selective for hTREX1) | 1 to 10 | > 10
3 | CC(c1nc(C(=O)Nc2cnoc2)c(O)c(=O)n1C)C(c1cc(F)cc(F)c1)c1ccccc1C#N (single isomer, unassigned) [Example 11 Isomer 4] | A (A = <25 fold selective for hTREX1) | 1 to 10 | 1 to 10
4 | CC(c1nc(C(=O)Nc2cnoc2)c(O)c(=O)n1C)C(c1ccc(F)c(F)c1)c1ccccc1C#N (single isomer, unassigned) [Example 12 Isomer 1] | C (C = >50 fold selective for hTREX1) | 1 to 10 | > 10
5 | CC(c1nc(C(=O)Nc2cnoc2)c(O)c(=O)n1C)C(c1ccc(F)c(F)c1)c1ccccc1C#N (single isomer, unassigned) [Example 12 Isomer 3] | B (B = 25 to 50 fold selective for hTREX1) | < 1 | < 1
6 | CC(c1nc(C(=O)Nc2cnoc2)c(O)c(=O)n1C)C(c1ccc(F)c(F)c1)c1ccccc1C#N (single isomer, unassigned) [Example 12 Isomer 4] | A (A = <25 fold selective for hTREX1) | 10 to 100 | > 10
7 | CC(c1nc(C(=O)Nc2cnoc2)c(O)c(=O)n1C)C(c1ccc(F)cc1F)c1ccccc1C#N (single isomer, unassigned) [Example 13 Isomer 3] | B (B = 25 to 50 fold selective for hTREX1) | 10 to 100 | > 10
8 | C[C@H](c1nc(C(=O)Nc2cnoc2)c(O)c(=O)n1C)[C@H](c1ccccc1)c1ccccc1C(F)(F)F (single isomer, unassigned) [Example 14 Isomer 1, 5-Hydroxy-N-(isoxazol-4-yl)-1-methyl-6-oxo-2-(1-phenyl-1-(2-(trifluoromethyl)phenyl)propan-2-yl)-1,6-dihydropyrimidine-4-carboxamide] | A (A = <25 fold selective for hTREX1) | > 100 | > 10
9 | C[C@H](c1nc(C(=O)Nc2cnoc2)c(O)c(=O)n1C)[C@H](c1ccccc1)c1ccccc1C(F)(F)F (single isomer, unassigned) [Example 14 Isomer 4, 5-Hydroxy-N-(isoxazol-4-yl)-1-methyl-6-oxo-2-(1-phenyl-1-(2-(trifluoromethyl)phenyl)propan-2-yl)-1,6-dihydropyrimidine-4-carboxamide] | B (B = 25 to 50 fold selective for hTREX1) | 1 to 10 | > 10
10 | C[C@H](c1nc(C(=O)Nc2cnoc2)c(O)c(=O)n1C)C(c1ccccc1Cl)c1ccccc1Cl (single isomer, unassigned) [Example 15 Isomer 2, 2-(1,1-bis(2-chlorophenyl)propan-2-yl)-5-hydroxy-N-(isooxazol-4-yl)-1-methyl-6-oxo-1,6-dihydropyrimidine-4-carboxamide] | A (A = <25 fold selective for hTREX1) | > 100 | > 10

Second part, the compound after the results:

Row | hTREX1 vs hTREX2 selectivity (human TREX2) | IC50 (human TREX1) [nM] | IC50 (mouse TREX1) [nM] | SMILES
11 | C (C = >50 fold selective for hTREX1) | < 1 | 1 to 10 | CC(c1nc(C(=O)Nc2cnoc2)c(O)c(=O)n1C)C(c1ccccc1Cl)c1ccccc1C#N (single isomer, unassigned) [Example 10 Isomer 3]
12 | C (C = >50 fold selective for hTREX1) | < 1 | 1 to 10 | CC(c1nc(C(=O)Nc2cnoc2)c(O)c(=O)n1C)C(c1ccccc1Cl)c1ccccc1C#N (single isomer, unassigned) [Example 10 Isomer 4]
13 | C (C = >50 fold selective for hTREX1) | < 1 | < 1 | CC(c1nc(C(=O)Nc2cnoc2)c(O)c(=O)n1C)C(c1ccc(F)cc1F)c1ccccc1C#N (single isomer, unassigned) [Example 13 Isomer 1]
14 | C (C = >50 fold selective for hTREX1) | < 1 | 1 to 10 | CC(c1nc(C(=O)Nc2cnoc2)c(O)c(=O)n1C)C(c1ccc(F)cc1F)c1ccccc1C#N (single isomer, unassigned) [Example 13 Isomer 2]
